# ChEMBL document CHEMBL1134430, “Synthesis and biological activity of novel macrocyclic antifungals: acylated conjugates of the ornithine moiety of the lipopeptidolactone FR901469” (2001)
# What was measured:
# Format in all cases: functional
# [1] = test system: Meyerozyma guilliermondii; assay: Minimum inhibitory concentration against Candida guilliermondii FP587 strain
# Candida parapsilosis = assay: Minimum inhibitory concentration against Candida parapsilosis 15001 strain; details: Lodderomyces parapsilosis
# Candida albicans [2] = assay: Minimum inhibitory concentration against Candida albicans FP579 strain
# Candida albicans [3] = assay: Minimum inhibitory concentration against Candida albicans FP633 strain
# Candida tropicalis [4] = assay: Minimum inhibitory concentration against Candida tropicalis 8001 strain
# Candida tropicalis [5] = assay: Minimum inhibitory concentration against Candida tropicalis 8002 strain
# Mus musculus [6] = species: Mus musculus; assay: Hemolytic ability to hemolyze ICR mouse RBCs in microtiter red blood cell hemolysis assay; design: concentration or dose not given beside the values
# Aspergillus fumigatus = assay: In vitro minimum inhibitory concentration against Aspergillus fumigatus TIMM0063 FPI305 was determined by the broth microdilution method.
# Mus musculus [7] = assay: (§1) Ratio of In vivo activity of drug in Disseminated Murine Candidiasis Model to that of In vivo activity of FR-901469 in Disseminated Murine Candidiasis Model
# Mus musculus [8] = assay: In vivo activity in Disseminated Murine Candidiasis Model
# [9] = as §1
SMILES,MIC [1],MIC (Candida parapsilosis),MIC (Candida albicans [2]),MIC (Candida albicans [3]),MIC (Candida tropicalis [4]),MIC (Candida tropicalis [5]),Hemolysis (Mus musculus [6]),MIC (Aspergillus fumigatus),Ratio (Mus musculus [7]),ED50 (Mus musculus [8]),Ratio [9]
CCCCCCCCCCCCC[C@@H]1CC(=O)N[C@H]([C@@H](C)O)C(=O)N[C@H](C)C(=O)N[C@@H](Cc2ccc(O)cc2)C(=O)N[C@@H](C(C)C)C(=O)N2C[C@H](O)C[C@H]2C(=O)N[C@H]([C@@H](C)O)C(=O)N[C@@H]([C@@H](C)O)C(=O)N2CC[C@H](O)[C@H]2C(=O)N[C@@H]([C@H](O)CC(N)=O)C(=O)NCC(=O)N[C@H]([C@@H](C)O)C(=O)N[C@@H](CCCNC(=O)CO)C(=O)O1,0.39 µg/mL,0.78 µg/mL,0.78 µg/mL,0.39 µg/mL,1.56 µg/mL,0.78 µg/mL,9%,–,–,–,–
CCCCCCCCCCCCC[C@@H]1CC(=O)N[C@H]([C@@H](C)O)C(=O)N[C@H](C)C(=O)N[C@@H](Cc2ccc(O)cc2)C(=O)N[C@@H](C(C)C)C(=O)N2C[C@H](O)C[C@H]2C(=O)N[C@H]([C@@H](C)O)C(=O)N[C@@H]([C@@H](C)O)C(=O)N2CC[C@H](O)[C@H]2C(=O)N[C@@H]([C@H](O)CC(N)=O)C(=O)NCC(=O)N[C@H]([C@@H](C)O)C(=O)N[C@@H](CCCNC(C)=O)C(=O)O1,0.78 µg/mL,1.56 µg/mL,0.78 µg/mL,0.39 µg/mL,1.56 µg/mL,1.56 µg/mL,5%,1 µg/mL,6.2,4 mg/kg,–
CCCCCCCCCCCCC[C@@H]1CC(=O)N[C@H]([C@@H](C)O)C(=O)N[C@H](C)C(=O)N[C@@H](Cc2ccc(O)cc2)C(=O)N[C@@H](C(C)C)C(=O)N2C[C@H](O)C[C@H]2C(=O)N[C@H]([C@@H](C)O)C(=O)N[C@@H]([C@@H](C)O)C(=O)N2CC[C@H](O)[C@H]2C(=O)N[C@@H]([C@H](O)CC(N)=O)C(=O)NCC(=O)N[C@H]([C@@H](C)O)C(=O)N[C@@H](CCCNC(=O)[C@@H](N)CCCN)C(=O)O1.Cl,0.39 µg/mL,0.39 µg/mL,0.78 µg/mL,0.39 µg/mL,1.56 µg/mL,1.56 µg/mL,20%,0.5 µg/mL,–,0.54 mg/kg,0.8
CCCCCCCCCCCCC[C@@H]1CC(=O)N[C@H]([C@@H](C)O)C(=O)N[C@H](C)C(=O)N[C@@H](Cc2ccc(O)cc2)C(=O)N[C@@H](C(C)C)C(=O)N2C[C@H](O)C[C@H]2C(=O)N[C@H]([C@@H](C)O)C(=O)N[C@@H]([C@@H](C)O)C(=O)N2CC[C@H](O)[C@H]2C(=O)N[C@@H]([C@H](O)CC(N)=O)C(=O)NCC(=O)N[C@H]([C@@H](C)O)C(=O)N[C@@H](CCCNC(=O)CN)C(=O)O1.Cl,0.78 µg/mL,0.78 µg/mL,0.78 µg/mL,0.39 µg/mL,0.78 µg/mL,0.78 µg/mL,67%,0.5 µg/mL,–,–,–
CCCCCCCCCCCCC[C@@H]1CC(=O)N[C@H]([C@@H](C)O)C(=O)N[C@H](C)C(=O)N[C@@H](Cc2ccc(O)cc2)C(=O)N[C@@H](C(C)C)C(=O)N2C[C@H](O)C[C@H]2C(=O)N[C@H]([C@@H](C)O)C(=O)N[C@@H]([C@@H](C)O)C(=O)N2CC[C@H](O)[C@H]2C(=O)N[C@@H]([C@H](O)CC(N)=O)C(=O)NCC(=O)N[C@H]([C@@H](C)O)C(=O)N[C@@H](CCCNC(=O)[C@@H]2CCN2)C(=O)O1.Cl,0.78 µg/mL,0.78 µg/mL,0.78 µg/mL,0.39 µg/mL,0.39 µg/mL,0.39 µg/mL,27%,–,–,–,–
CCCCCCCCCCCCC[C@@H]1CC(=O)N[C@H]([C@@H](C)O)C(=O)N[C@H](C)C(=O)N[C@@H](Cc2ccc(O)cc2)C(=O)N[C@@H](C(C)C)C(=O)N2C[C@H](O)C[C@H]2C(=O)N[C@H]([C@@H](C)O)C(=O)N[C@@H]([C@@H](C)O)C(=O)N2CC[C@H](O)[C@H]2C(=O)N[C@@H]([C@H](O)CC(N)=O)C(=O)NCC(=O)N[C@H]([C@@H](C)O)C(=O)N[C@@H](CCCNC(=O)CCCCN)C(=O)O1.Cl,0.39 µg/mL,0.39 µg/mL,0.78 µg/mL,0.39 µg/mL,0.78 µg/mL,0.78 µg/mL,20%,–,–,–,–
CCCCCCCCCCCCC[C@@H]1CC(=O)N[C@H]([C@@H](C)O)C(=O)N[C@H](C)C(=O)N[C@@H](Cc2ccc(O)cc2)C(=O)N[C@@H](C(C)C)C(=O)N2C[C@H](O)C[C@H]2C(=O)N[C@H]([C@@H](C)O)C(=O)N[C@@H]([C@@H](C)O)C(=O)N2CC[C@H](O)[C@H]2C(=O)N[C@@H]([C@H](O)CC(N)=O)C(=O)NCC(=O)N[C@H]([C@@H](C)O)C(=O)N[C@@H](CCCNC(=O)CCN)C(=O)O1.Cl,0.39 µg/mL,0.39 µg/mL,0.39 µg/mL,0.39 µg/mL,0.78 µg/mL,0.78 µg/mL,44%,–,–,–,–
CCCCCCCCCCCCC[C@@H]1CC(=O)N[C@H]([C@@H](C)O)C(=O)N[C@H](C)C(=O)N[C@@H](Cc2ccc(O)cc2)C(=O)N[C@@H](C(C)C)C(=O)N2C[C@H](O)C[C@H]2C(=O)N[C@H]([C@@H](C)O)C(=O)N[C@@H]([C@@H](C)O)C(=O)N2CC[C@H](O)[C@H]2C(=O)N[C@@H]([C@H](O)CC(N)=O)C(=O)NCC(=O)N[C@H]([C@@H](C)O)C(=O)N[C@@H](CCCNC(=O)CCCN)C(=O)O1.Cl,0.78 µg/mL,0.78 µg/mL,1.56 µg/mL,0.78 µg/mL,1.56 µg/mL,0.78 µg/mL,30%,–,–,–,–
CCCCCCCCCCCCC[C@@H]1CC(=O)N[C@H]([C@@H](C)O)C(=O)N[C@H](C)C(=O)N[C@@H](Cc2ccc(O)cc2)C(=O)N[C@@H](C(C)C)C(=O)N2C[C@H](O)C[C@H]2C(=O)N[C@H]([C@@H](C)O)C(=O)N[C@@H]([C@@H](C)O)C(=O)N2CC[C@H](O)[C@H]2C(=O)N[C@@H]([C@H](O)CC(N)=O)C(=O)NCC(=O)N[C@H]([C@@H](C)O)C(=O)N[C@@H](CCCNC(=O)CCCCCN)C(=O)O1.Cl,0.78 µg/mL,0.39 µg/mL,0.78 µg/mL,0.39 µg/mL,0.78 µg/mL,0.78 µg/mL,14%,–,–,–,–
CCCCCCCCCCCCC[C@@H]1CC(=O)N[C@H]([C@@H](C)O)C(=O)N[C@H](C)C(=O)N[C@@H](Cc2ccc(O)cc2)C(=O)N[C@@H](C(C)C)C(=O)N2C[C@H](O)C[C@H]2C(=O)N[C@H]([C@@H](C)O)C(=O)N[C@@H]([C@@H](C)O)C(=O)N2CC[C@H](O)[C@H]2C(=O)N[C@@H]([C@H](O)CC(N)=O)C(=O)NCC(=O)N[C@H]([C@@H](C)O)C(=O)N[C@@H](CCCNC(=O)CN(C)C)C(=O)O1.Cl,0.2 µg/mL,0.39 µg/mL,0.78 µg/mL,0.39 µg/mL,0.78 µg/mL,0.78 µg/mL,10%,0.5 µg/mL,10.4,9.1 mg/kg,–
CCCCCCCCCCCCC[C@@H]1CC(=O)N[C@H]([C@@H](C)O)C(=O)N[C@H](C)C(=O)N[C@@H](Cc2ccc(O)cc2)C(=O)N[C@@H](C(C)C)C(=O)N2C[C@H](O)C[C@H]2C(=O)N[C@H]([C@@H](C)O)C(=O)N[C@@H]([C@@H](C)O)C(=O)N2CC[C@H](O)[C@H]2C(=O)N[C@@H]([C@H](O)CC(N)=O)C(=O)NCC(=O)N[C@H]([C@@H](C)O)C(=O)N[C@@H](CCCNC(=O)CNC)C(=O)O1.Cl,0.39 µg/mL,0.39 µg/mL,0.39 µg/mL,0.2 µg/mL,0.78 µg/mL,0.78 µg/mL,54%,–,–,–,–
CCCCCCCCCCCCC[C@@H]1CC(=O)N[C@H]([C@@H](C)O)C(=O)N[C@H](C)C(=O)N[C@@H](Cc2ccc(O)cc2)C(=O)N[C@@H](C(C)C)C(=O)N2C[C@H](O)C[C@H]2C(=O)N[C@H]([C@@H](C)O)C(=O)N[C@@H]([C@@H](C)O)C(=O)N2CC[C@H](O)[C@H]2C(=O)N[C@@H]([C@H](O)CC(N)=O)C(=O)NCC(=O)N[C@H]([C@@H](C)O)C(=O)N[C@@H](CCCN)C(=O)O1.Cl,0.39 µg/mL,0.39 µg/mL,0.39 µg/mL,0.39 µg/mL,0.39 µg/mL,0.39 µg/mL,100%,0.5 µg/mL,–,0.44 mg/kg,–
C[C@@H]1[C@H](O)[C@@H](C)/C=C/C=C/C=C/C=C/C=C/C=C/C=C/[C@H](O[C@@H]2O[C@H](C)[C@@H](O)[C@H](N)[C@@H]2O)C[C@@H]2O[C@](O)(C[C@@H](O)C[C@@H](O)[C@H](O)CC[C@@H](O)C[C@@H](O)CC(=O)O[C@H]1C)C[C@H](O)[C@H]2C(=O)O [AMPHOTERICIN B],–,–,–,–,–,–,–,–,–,0.132 mg/kg,–
OC(Cn1cncn1)(Cn1cncn1)c1ccc(F)cc1F [FLUCONAZOLE],–,–,–,–,–,–,–,–,–,> 20 mg/kg,–
